Here are results for 3 molecules from patent EP4414363A1, “INDOLYLACETIC DERIVATIVES FOR USE IN THE TREATMENT OF NEURODEGENERATIVE DISEASES” (Miuli Pharma S.r.l., priority 2023, dated 2024).

One series has as its system iNOS. As to the kind of experiment: Western blot of LPS-induced iNOS expression in microglia cells. Particulars: BV2 microglial cells, LPS 100 ng/mL, compound 100nM, 24h. The series is classed as cell-based, murine. The method, then:
(§1) Human neuroblastoma SH-SY5Y cells (Cell bank Line Collection ICLC) and immortalized murine microglial BV-2 cell line were grown as monolayers in polystyrene dishes (12 or 6 wells plate) in Dulbecco's modified Eagle's medium (DMEM) with 10% (v/v) fetal bovine serum (FBS), L glutamine (2 mM), 1% penicillin (50 IU/ml) and streptomycin (50 µg/ml). Cells were grown in a humidified atmosphere containing 95% air and 5% CO2, and the medium was changed every two days. All experiments were conducted in cultures containing cells between the 4th and 8th passages.
(§2) SH-SY5Y and BV-2 cells were plated with a confluence of 65.000 cell/mL. After 24 hours of cell seeding, medium was changed for 6h starvation in a medium containing 0% FBS. […]
(§3) Cells were exposed to compounds or vehicle and, after 24 hours, have been analyzed for Western Blotting experiments or MTT assay.
(§4) Western blot analysis was performed as previously described. Protein samples (50 µg) were analyzed on 8% subjected to SDS-polyacrylamide gel electrophoresis (SDS-PAGE) and electrotransferred onto Hybond ECL nitrocellulose paper (Amersham, Milan, Italy). […]
(§5) Immunoreactive bands were detected using ECL (Amersham). The optical density of the bands (normalized for β-actin) was determined by Chemi-Doc Imaging System (Bio-Rad, Segrate, Italy).
A general note: In western blotting, separated proteins are transferred to a membrane and probed.

For series [1] the following is noted: from reference [15]; cited from earlier work.
Series [2] is described as follows: Body weight during prolonged treatment. The format is in vivo, mice. The source says:
(§6) B6SJL-TgN SOD1/G93A(+)1Gur mice expressing high copy number of mutant human SOD1 with a Gly93Ala substitution [SOD1^G93A] and B6SJL-TgN (SOD1)2Gur mice expressing wild-type human SOD1 (WT) were obtained from Jackson Laboratories (Bar Harbor, ME, USA). Transgenic animals have been crossed with background-matched B6SJL wild-type female and selective breeding maintained each transgene in the […] state. All transgenic mice were identified analyzing extracts from tail tips by staining for SOD1 as previously described.
(§7) Overall, 24 male and female mice housed under diurnal lighting conditions (12 h darkness/light) were used. The number of female and male mice was balanced among all the experimental groups.
(§8) The newly synthesized compound III, dissolved in distilled water, was intraperitoneally administered daily at a dose of […], beginning at 2 months of age until 4,5 months of age.
(§9) Motor coordination and balance was assessed using a five-station mouse rotarod apparatus (Ugo Basile; Milan, Italy) as previously described. In each station, the rod was 6 cm in length and 3 cm in diameter. […] Mice had three trials on the rod, and the latencies to fall were measured once a week and then averaged. […] Body weight was measured immediately before each session of behavioral tests. […]

Series [3] relates to SOD1^G93A mice. Briefly: Paralysis onset in ALS mice. The series is classed as in vivo. Particulars: daily i.p., dose group not stated, vehicle 33.69 ± 1.31 days.
Source text: as §6, §7, §8, §9

The subject of series [4] is SOD1^G93A mice. As to the kind of experiment: Rotarod test (motor coordination and balance). The series is classed as in vivo.
Source text: as §6, §7, §8
Motor coordination and balance was assessed using a five-station mouse rotarod apparatus (Ugo Basile; Milan, Italy) as previously described. In each station, the rod was 6 cm in length and 3 cm in diameter. Mice were trained to maintain balance at increasing speed up to a constant speed of 14 rpm for three consecutive trials. The test sessions were conducted by one rotarod trial administered once a week. In this session, the speed of rotation was increased from 4 to 14 rpm over 60 s. Mice had three trials on the rod, and the latencies to fall were measured once a week and then averaged. […] Weekly evaluation of hind limb paralysis was performed. […] Body weight was measured immediately before each session of behavioral tests.
To investigate whether the reduced neuroinflammatory response observed in vitro through the effect on TNF-α expression was accompanied by an amelioration of the motor performance of these mice, behavioral tests were weekly performed on WT and SOD1^G93A mice, starting from the second month after birth (P60), when i.p. administration of compound III started and when the mice were asymptomatic. […]
Background: Falling from the rotarod earlier than controls is read as motor impairment.

The subject of series [5] is SOD1^G93A mice. Briefly: Survival of ALS mice under prolonged treatment. The series is classed as in vivo. Particulars: daily i.p. from 2 months of age, dose group not stated, vehicle 127.9 ± 1.65 days.
Source text: as §6, §7, §8
Disease end stage was defined by the inability of mice to right themselves within 20 s when placed on their sides.
Data were evaluated as means ± SEM. Statistically significant differences among means were determined by one-way ANOVA followed by Student-Newman-Keuls/Bonferroni post-hoc test for western blotting, and Behavioral test. The Kaplan-Meier plot was used to evaluate survival, grip, rotarod and paralysis onset. Student's t-test was used for two groups comparison. […]

The test system of series [6] is SOD1^G93A mice. Briefly: Hind limb grip test. The format is in vivo.
Source text: as §6, §7, §8
Hind limb grip test was carried out by placing the mouse on a grid (45 cm long × 28 cm large) upside-down (30 cm above a foam pad). The test was performed once a week and the latency to fall off the grid was also measured up to a maximum of 60 s.
To investigate whether the reduced neuroinflammatory response observed in vitro through the effect on TNF-α expression was accompanied by an amelioration of the motor performance of these mice, behavioral tests were weekly performed on WT and SOD1^G93A mice, starting from the second month after birth (P60), when i.p. administration of compound III started and when the mice were asymptomatic. All animals were assigned to three experimental groups: SOD1^G93A+vehicle, SOD1 ^G93A +compound III at 1 mg/kg, and SOD1 ^G93A +compound III at 10 mg/kg, and then weighed, subjected to rotarod test, grip test and observed to detect the disease onset.

The test system of a further series is COX2. Briefly: Western blot of COX2 expression in LPS-exposed microglia cells. The series is classed as cell-based, murine. Particulars: BV2 microglial cells, LPS 100 ng/mL, compound 100nM, 24h. The procedure: as §1, §2, §3, §4, §5
The next series has as its system TNF-α. Briefly: Western blot of LPS-induced TNF-α expression in microglia cells. The series is classed as cell-based, murine. Particulars: BV2 microglial cells, LPS 100 ng/mL, compound 100nM, 24h. The method, then:
as §1, §2, §3, §4, §5

The structures appear in SMILES notation.

Consider `COc1ccc2c(c1)c(CC(=O)O)c(C)n2C1CCN(C)CC1` [Compound II, 2-(5-methoxy-2-methyl-1-(1-methylpiperidin-4-yl)-1H-indol-3-yl)acetic acid], for which, in the series on iNOS, the “iNOS induction elicited by LPS” value is listed as “prevent iNOS induction”. For the same molecule, the “gastric damage evaluated as the lengths of the lesions” value (“gastric damage evaluated” for short) in [1] is 0 mm.
As for `CCOC(=O)Cc1c(C)n(C2CCN(C)CC2)c2ccc(OC)cc12` [Compound III, Ethyl 2-(5-methoxy-2-methyl-1-(1-methylpiperidin-4-yl)-1H-indol-3-yl)acetate], the body weight result was “remained stable over time” in series [2] (SOD1^G93A mice treated for 8 weeks, vehicle group 10% reduction at 7 weeks) and “No differences were observed” in series [2] (WT mice, compound versus vehicle). This molecule also registered a paralysis onset with SOD1^G93A mice [3] of 42.47 ± 1.59 days. Moreover, in the series with SOD1^G93A mice [4] (SOD1^G93A mice, at 8 weeks of treatment, vehicle 3.7±1 sec, maximum 60 s), the “rotarod: time able to balance on the rotarod” value is 21.4 ± 5 s. Besides, the “rotarod onset (50% of the animals started to fall off the rotarod)” value with SOD1^G93A mice [4] (SOD1^G93A mice, day of treatment, vehicle around the 30th day) is ~45 days. Besides, in the series with SOD1^G93A mice [4] (wild type mice), the rotarod performance result is reported as “did not disrupt this performance”. This molecule had an average lifespan in the series on SOD1^G93A mice [5] of 146.2 ± 3 days. In [1], the “gastric damage evaluated” value is listed as 3 ± 0.6 mm. The “onset of grip performance loss (50% of the animals started to lose their grip)” value in the series with SOD1^G93A mice [6] (G93A mice, day after treatment, vehicle around the 35th day) is ~45 days. The “grip performance (latency to fall off the grid)” value in the series with SOD1^G93A mice [6] (SOD1^G93A mice, at 6 weeks of treatment, vehicle 28.8 ± 4 sec, maximum 60 s) was determined as 43.8 ± 4 s. Further, in the series on SOD1^G93A mice [6] (SOD1^G93A mice, at 8 weeks of treatment), the “grip performance (time remained on the grid)” value was found to be 20 s. For the same molecule, the COX2 expression entry in the series on COX2 is given as “not COX2”. The “overexpression of TNF-α induced by LPS exposure” value in the series with TNF-α is listed as “prevent the overexpression of TNF-α”.
Consider `COc1ccc2c(c1)c(CC(=O)O)c(C)n2C(=O)c1ccc(Cl)cc1` [indomethacin, reference compound], for which the “gastric damage evaluated” value in series [1] is 50 ± 8 mm.
